SMILES strings stand for the structures. Where only a bound is given, the exact number is not on record here.

Experimental findings from a melting point compilation (Tetko et al.; mined from patent text by program, amines drawn as free bases though some values may be those of a salt) are described below.

The compound `CCn1cc(C(=O)O)c(=O)c2cc(F)c(N3CCC(NC)C3)nc21` (stereo not given) displayed a melting point of 242 °C. The figure for `COc1cc2cc3c(Nc4ccc(Sc5nccn5C)c(Cl)c4)c(C#N)cnc3cc2cc1OCCn1ccnn1` is 201 to 207 °C. The figure for `CCOC(=O)CCCc1sc(N)nc1-c1ccc(Cl)cc1` is 114 to 115 °C; for `OC1(c2ccc(Cl)c(C(F)(F)F)c2)CCN(CCCc2nnc3n2CCCCC3)CC1` it is 151 °C; for `COc1cc(NC(NC(C)C(C)(C)C)=C(C#N)S(C)(=O)=O)cc(C(F)(F)F)c1` (stereo not given) it is 110 to 113 °C.

The compound `COc1cc(N2CCC(N3CCOCC3)C2)ccc1Nc1ncc2ccc(-c3ccccc3N(C)S(C)(=O)=O)n2n1` (stereo not given) displayed a melting point of 110 to 119 °C. Next, `CCc1cc(C#N)c(OC)nc1C`: 59 to 61 °C.

Regarding `CN1C=CNC1=C(C(=O)C(F)(F)F)C(=O)C(F)(F)F`, the melting point came out at 180 °C. In turn, `CC(C)n1nc(-c2sc(NC(=O)CNCc3cccnc3)nc2-c2ccccc2)ccc1=O` yielded a melting point of 156 to 158 °C.

As for `CN(C)C=Nc1nc(CN2CCN(C(c3ccccc3)c3ccccc3)CC2)cs1`, the melting point was in the range of 148 to 150 °C.

As for `COC=C(C#N)C(=O)c1cc(F)c(Cl)cc1Cl`, the melting point stood at 159 °C.

Consider `CN(C)CCCn1ccc(-c2ccc(F)cc2)c1-c1ccncc1`, for which the melting point lay within 93 to 95 °C. The figure for `Cc1ccc(C2c3c(C)c(N)c(C)c(C)c3OC2(C)C)cc1` (stereo not given) is 91 to 92 °C; for `CCc1nc2c(N)nc3cc(OCc4cccc(Cl)n4)ccc3c2s1` it is 229 to 230 °C. Next, `CS(=O)(=O)Nc1ccc(C(=O)c2[nH]c3cc(Cl)ccc3c2CC(=O)O)cc1`: 207 to 210 °C; `CC(C)(O)c1ccc(-c2nn(Cc3ccccc3)c3ccccc23)o1`: 124 to 127 °C; `CNC(=O)c1cccc(NC(=O)Cc2c(C)ccc3ccccc23)c1`: 230 to 231 °C. Next, `CCOC(=O)c1ccc(NC(=O)CCCCCc2ccc(Cl)cc2)cc1`: 107 to 108 °C; `Cc1ccc2c(c1C)C(=O)CC2`: 43 to 44 °C; `CCCCc1nn(-c2cccc([N+](=O)[O-])c2)c(=O)n1Cc1ccc(-c2ccccc2S(N)(=O)=O)cc1`: 73 to 76 °C. In the case of `COc1ccc(-c2csc(C=CC(=O)O)c2)cc1C(C)(C)C`, the melting point was 206 to 207 °C. The figure for `Cc1c(C=O)cc2c(c1C)OCC2` is 60 °C; for `O=C(c1ccc(Cl)cc1)c1ccc2c(c1)C(c1cccc(Cl)c1)=NCc1nnnn1-2` it is 220 °C.

In turn, `CCc1cnc(N2CCC(c3nc4cc(-c5ccc(S(C)(=O)=O)cc5F)ccc4[nH]3)CC2)nc1` yielded a melting point of 186 to 190 °C. Next, `CCOC(=O)CCc1cc2cc(O)ccc2s1`: 111 to 113 °C; `CCCCCCCCC(C)(C)c1cc(=O)c2cc(O)ccc2o1`: 257 °C; `CCN(CC)CC(O)c1c(OC)ccc2c(C)c(C)oc12` (stereo not given): 55 °C. Next, `O=C(NCCCCCCCCNC(=O)c1ccc2c(c1)OCO2)c1ccc2c(c1)OCO2`: 179 to 180 °C; `N#Cc1cnccc1-c1c(-c2ccccc2)nn2ccccc12`: 208 to 210 °C. Next, `Cc1c(OCCCCSCCn2c([N+](=O)[O-])cnc2C)ccnc1CNc1cnc2ccccc2c1`: 154 to 158 °C. `COc1ccc(-c2nc3c(OC(C)=O)cccc3s2)cc1` showed a melting point of 122 to 124 °C. Next, `CCOC(=O)c1c(C)n(C)c(-c2ccccc2)cc1=O`: 154 °C; `CCOc1c(N)cc(-c2cccc3ccccc23)c2nc(C(=O)O)ccc12`: 182 to 184 °C; `CCC(C)CNC(=O)c1ccc2cccc(Cc3ccc(C(=O)OC)cc3OC)c2c1` (stereo not given): 134 to 135 °C. The figure for `COc1cc2nc(-c3ccccc3)nc(N3CCN(C(=O)Nc4ccc([N+](=O)[O-])cc4)CC3)c2cc1OC` is 156 to 157 °C. Consider `CC(C(=O)O)c1ccc2oc(N)nc2c1` (stereo not given), for which the melting point was in the range of 225 to 229 °C. Next, `O=C1NCCCN1N=Cc1ccccc1`: 190 °C; `NC(=S)Nc1cc2ccccc2cn1`: 225 to 227 °C. `COc1ccccc1C(CSc1ccccc1N)C(=O)O` (stereo not given) registered a melting point of 85 °C.

`CC1(C)CCc2cc(C#N)ccc2O1`: the melting point lay in the range of 30 to 31 °C. The figure for `O=C(O)c1ccc2ccc3ccc(C(=O)O)cc3c2c1` is 390 °C; for `O=C1C=CC(=O)c2cc(C(F)(F)F)c(C(F)(F)F)cc21` it is 91 to 94 °C; for `CCCCCCCCCCCCc1ccc(C#Cc2c3ccccc3c(C#Cc3ccc(CCCCCCCCCCCC)cc3)c3ccccc23)cc1` it is 111 to 113 °C. Next, `CCC1(CC)NC(=O)Oc2ccccc21`: 160 to 162 °C; `CC(C)Oc1cccc2c1C(=NNc1ccc(S(N)(=O)=O)cc1)C(=O)N2`: over 250 °C. Next, `COC(=O)c1cc2c(N3CCNCC3)cccc2[nH]1`: 177 to 180 °C; `[N-]=[N+]=Nc1cc(C2COCOC2)c2occc2c1`: 102 to 104 °C; `C=CCN(C(C)=O)c1cccc(C(=O)C=CN(C)C)c1`: 91 to 94 °C. As to `CCOCN1C(C)=C(C(=O)OC)[C@H](c2cccc([N+](=O)[O-])c2)C(C(=O)OCOC(=O)C(C)(C)C)=C1C`, the melting point lay within 81 to 82 °C. The figure for `CCn1cc2c(n1)c(N)nc1cc(O)ccc12` is 214 to 215 °C; for `COc1ccc(F)cc1C(C)(C)CC(=O)C(=O)Nc1ccc2c(=O)onc(C)c2c1` it is 171 to 173 °C. In turn, `O=C(O)c1ccc2oc3c(c(=O)c2c1)CCCC3=Cc1ccccc1` displayed a melting point of 284 to 286 °C. Next, `CCn1cc2c(n1)c(Cl)nc1cc(OCc3ccccc3)ccc12`: 155 to 157 °C; `O=C1NC(=S)SC1=Cc1ccc2c(c1)N(CCc1ccc(F)c(F)c1)C(=O)CO2`: 263 to 266 °C. The figure for `Cc1ccc(NS(=O)(=O)c2cccc(C#N)c2)c2[nH]cc(C#N)c12` is 220 to 221 °C. The figure for `O=C(O)CCCc1cccc(NC(=O)[C@@H](CS)Cc2ccccc2)c1` is 149 to 152 °C. On to `O=C(O)C1CSC(c2ccccc2F)N1` (mixture of isomers), for which the melting point came to 147 °C. `CC1(C)CC(=O)Nc2ccc(-c3cc(F)cc(C#N)c3)cc21` had a melting point of 249 to 250 °C. The figure for `O=C1CN(c2ccc(Cc3ccccc3)cc2)C(=S)N1c1ccc([N+](=O)[O-])cc1` is 209 °C. The figure for `CC(C)C1(C)N=C(c2ccccc2C(=O)O)N(O)C1=O` (stereo not given) is 186 to 188 °C; for `O=C(O)c1ccc(N(CCn2ccnc2)c2ccc(F)cc2)cc1-c1ccc(F)cc1` it is 195 to 200 °C; for `Cn1nnc2c(N3CCOCC3)nc(-c3ccc(NC(=O)Nc4ccsc4)cc3)nc21` it is 272 °C. In the case of `COc1cc2ccn(C(=O)c3ccc(-c4ccccc4)c(C)c3)c2cc1OCCN(C)C`, the melting point lay in the range of 152 to 154 °C. Next, `CCCCCCCCCCCCCCCCCCOC[C@H](CO)OC(=O)NC`: 68 to 69 °C; `CCNC(=O)OCCOc1ccc(Oc2cccc(Cl)c2)cc1Cl`: 73 to 74 °C; `C=C(Cl)CN1C(=O)c2ccccc2Oc2ncccc21`: 106 to 108 °C. For the compound `COCc1nc(C=O)c[nH]1`, the melting point is 100 to 103 °C. Next, `O=C(OCc1ccc([N+](=O)[O-])cc1)OCc1ccc([N+](=O)[O-])cc1`: 156 to 158 °C. The figure for `Cc1cc(Br)ccc1C(CO)NC(=O)c1c(Cl)cncc1Cl` (stereo not given) is 192 to 194 °C; for `O=C(Nc1nc(C(F)(F)F)c(Cl)s1)c1ccc(Cl)c([N+](=O)[O-])c1` it is 183 to 184 °C. Next, `CSc1ncc(Cc2cccs2)c(=O)[nH]1`: 170 to 172 °C; `NCCNC(=O)CCCOc1ccc(C2=NNC(=O)CC2)cc1`: 174 to 175 °C; `CCCCCCCCCCCN=C=O`: 109 to 110 °C.

Turning to `O=C(CCCl)N(O)c1ccccc1`, the melting point lay in the range of 87 to 88 °C. The compound `Clc1ccc(CC2(c3ccccc3)OCC(CN3CCCCC3)O2)cc1` (stereo not given) registered a melting point of 58 °C. The figure for `NC(=O)c1ccc(F)c2c1OCC(N(CCCc1c[nH]c3c(F)cc(F)cc13)C1CCC1)C2` (stereo not given) is 136 °C. As for `O=c1[nH]c2ncc(-c3cccc(-c4nnn[nH]4)c3)nc2n1CC1CCCCC1`, the melting point is 248 to 250 °C.

As to `CCCCC1(N(C)C)CCC(c2[nH]c3ccccc3c2CCC)CC1` (stereo not given), the melting point lay in the range of 127 to 130 °C. Next, `CCc1cn(C2CC(OC(C)=O)C(CCC(=O)Cc3c(Cl)cccc3Cl)O2)c(=O)[nH]c1=O` (stereo not given): 186 °C; `COc1ccc(C(=O)C=Cc2ccc(SC)cc2)cc1`: 112 °C; `CCCCCC(CCCCC)n1c(=O)sc2c(=O)[nH]c(N)nc21`: over 195 °C. As to `COc1ccc2nccc(NC(=O)N3CCN(CC(O)c4cnc5ccccc5n4)CC3)c2n1` (stereo not given), the melting point was 133 to 135 °C. Next, `CC(=O)c1ccc(OCC(=O)NC2CCN(Cc3ccc(Cl)c(Cl)c3)CC2)cc1`: 113 °C.

Consider `CS(=O)(=O)c1ccc(-c2nc(C(F)(F)F)[nH]c2-c2ccc(Cl)c(Cl)c2)cc1`, for which the melting point was in the range of 249 to 251 °C. The figure for `CCc1ccc(CCc2ccccc2NC=O)nc1` is 62 to 63.5 °C; for `CCCc1ccc(S(=O)(=O)Nc2ccc3nc(C)cnc3c2)cc1` it is 136 °C. The figure for `CCCCCC(=O)NCc1ccc(C(=O)O)cc1` is 178 to 179 °C; for `CCc1cc(C=CN2C(=O)c3ccccc3C2=O)c(=O)[nH]c1C` it is 296 to 298 °C; for `CC(C)Cn1c(=O)[nH]c(=O)c2nc(-c3ccc(/C=C/C(=O)O)cc3)[nH]c21` it is over 300 °C. Consider `O=C(c1c(Cl)cccc1[N+](=O)[O-])n1ccnc1-c1ccccc1`, for which the melting point was 147 to 148 °C.

One may read the melting point as the temperature, or range, at which the solid turns liquid.
